pIC50: −log10 of the molar value. Values after ≈ are worked out from the molar mass of the structure shown.
Tests used:
Homo sapiens = species on record: Homo sapiens; experiment: In vitro inhibition of LTB4 production in human blood.; type: functional
Rattus norvegicus = experiment: Compound was evaluated ex vivo for inhibition of LTB4 production in rat air pouch inflammatory exudate at 3 hr after peroral administration.; type: functional; conditions: po
[1] = Aqueous solubility was determined; type: physicochemical

Row | SMILES | pIC50 (Homo sapiens) | ED50 (Rattus norvegicus) [mg/kg] | solubility [1] [µM]
1 | COC1(/C(C)=C/C(=O)OCc2ccc3c(ccc(=O)n3C)c2)CCOCC1 | 5.68 | > 5 | –
2 | COC1(C(=O)CC(=O)OCc2ccc3c(ccc(=O)n3C)c2)CCOCC1 | < 5.00 | > 5 | –
3 | COC1(C(=N)/C=C(\O)OCc2ccc3ccccc3c2)CCOCC1 | 7.15 | > 5 | 50 (≈ 17.1 µg/mL)
4 | COC1(/C=C/COCc2ccc3c(ccc(=O)n3C)c2)CCOCC1 | 6.30 | > 5 | –
5 | COC1(/C=C/C(=O)OCc2ccc3c(ccc(=O)n3C)c2)CCOCC1 | 5.77 | > 5 | –
6 | COC1(C(=N)/C=C(\O)OCc2ccc3c(ccc(=O)n3C)c2)CCOCC1 | 7.40 | 3 | 150 (≈ 55.9 µg/mL)
7 | COC1(C(=N)/C=C(\O)OCc2ccc3c(c2)OCC(=O)N3C)CCOCC1 | 7.22 | 5 | 25 (≈ 9.41 µg/mL)
8 | CO/C(=C\C(=O)OCc1ccc2c(ccc(=O)n2C)c1)C1(OC)CCOCC1 | 5.59 | > 5 | –
9 | COC1(c2cc(F)cc(OCc3ccc4c(ccc(=O)n4C)c3)c2)CCOCC1 [ZD-2138] | – | 0.3 | 3.8 (≈ 1.51 µg/mL)

Reference: ChEMBL document CHEMBL1153693, “Inhibitors of leukotriene B4. Synthesis and sar of new -enaminoester open-chain analogues of zeneca ZD2138” (Bioorg Med Chem Lett, 1996)
